The results in this text go back to patent publication US20060275520A1, “White peony extract for improving the duration and quality of sleep” (Access Business Group International LLC, priority 2005, published 2006).

For the assay, the target named is GABA-A receptors. In words: GABA-A Agonist binding assay (NovaScreen), [3H]-GABA displacement. Further details: species or system bovine. The conditions noted are these: converted from μg/ml; read-out: IC50 for paeoniflorin converted to molarity. As to the method: These GABA-A Agonist assays were conducted by NovaScreen Biosciences Corporation (Hanover, Md.) and are described in Falch E., et al., 1986. […] 47(3): 898-903 and Enna S. J., et al., 1977.
In particular, the GABA-A Agonist binding assays use bovine cerebellar membranes as the source of GABA-A receptors. GABA-A, radio labeled with tritium (^3H), is used as both the reference compound and positive control.
The bovine cerebellar membranes are exposed to both [^3H]-GABA and extracts of the desired test substance. In this instance, the bovine cerebellar membranes were exposed to: six extracts of white peony root at concentrations of 0.01, 0.03, 0.1, 0.3, 1, 3, and 10 μg/ml. The GABA-A Agonist assay measures how much radio labeled GABA-A binds to the GABA-A receptors present in the bovine cerebellar membranes.
The results of the GABA-A Agonist binding assays are shown in FIGS. 19-24 and are expressed below in Table I as IC50 in μg/ml.
In particular, the GABA-A Agonist binding assays use bovine cerebellar membranes as the source of GABA-A receptors. GABA-A, radio labeled with tritium (^3H), is used as both the reference compound and positive control. The bovine cerebellar membranes are exposed to both [^3H]-GABA and extracts of the desired test substance. […]

Structures are written as SMILES.

Usually IC50 stands for the concentration at which inhibition is half-maximal. For the molecule `C[C@@]12C[C@@]3(O)O[C@@H](O1)[C@]1(COC(=O)c4ccccc4)[C@H]3C[C@@]12O[C@@H]1O[C@H](CO)[C@@H](O)[C@H](O)[C@H]1O` [paeoniflorin], the IC50 was approximately 625 nM.
